# From patent US11549115B2, “Compositions and methods for regulated gene expression” (YALE UNIVERSITY, priority 2017, dated 2023)
# Test: LC-MS quantification of aTC in fecal pellets
# Format: in vivo, mice
# Protocol: Germ-free Swiss Webster mice were maintained in flexible plastic gnotobiotic isolators with a 12-hour light/dark cycle and provided a standard, autoclaved mouse chow (5K67 LabDiet, Purina) ad libitum and autoclaved water for the duration of the experiment. Filter-sterilized aTC was added to drinking water stored in red-tinted bottles (Ancare, #PC9RH8.5RD) to inhibit degradation by light. Mice were co-housed for the duration of the experiments. Cage changes were always carried out when aTC was withdrawn from drinking water. Fecal and luminal samples were collected and processed in 2.0 mL screw cap tubes (Axygen Scientific; #SCT-200-C). Germ free status was monitored by 16S rDNA-targeted PCR of fecal DNA and anaerobic and aerobic culture of fecal samples.
# Groups of 6 germ-free Swiss Webster mice were orally gavaged with 1×10^9 CFU of the desired B. thetaiotaomicron strain. Fecal samples (˜100-200 mg) were collected daily for 12 days. aTC (100 μg/mL) was administered in drinking water for 12 hours after fecal collection on day 1. Fecal samples were homogenized in 1 mL of 1× tris-buffered saline (TBS) with a single 5 mm stainless steel bead using a bead beater (BioSpec Products) at 26° C. for 1 minute on the high setting, followed by vortexing at top speed for 8 minutes. Samples were then centrifuged at 500×g for 1 minute to pellet fibrous and insoluble matter. Bacterial cells from 600 μL of the supernatant was isolated through centrifugation at 21,130×g for 3 minutes, resuspended in 50 μL of Sialidase Reaction buffer (50 mM Tris-HCl pH 7.0, 5 mM EDTA) containing 1× BugBuster, and stored at −80° C. for ex vivo sialidase measurements (described below).
# To the remaining material, 400 mg of 0.1 mm glass beads was added and further homogenized by bead beating for 2 minutes. Insoluble material was pelleted by centrifuging the sample for 3 minutes at 21,130×g, and 20 μL of the supernatant was used for mass spectrometry measurements of sialic acid and aTC by liquid chromatography coupled tandem mass spectrometry (QqQ) and mass spectrometry (qTOF), respectively.
# For aTC measurements, 5 μL of internal standard solution (0.25 μM sulfamethoxazole and caffeine in H2O) were added to each sample (20 μL) and further processed as described above. Dried samples were re-suspended in 4 μL methanol and diluted in 12 μL H2O. Chromatographic separation was performed on a C18 Kinetex Evo column (Phenomenex, 100 mm×2.1 mm, 1.7 μm particle size) using mobile phase A: H2O, 0.1% formic acid and B: methanol, 0.1% formic acid at 45° C. 10 μL of sample were injected at 100% A and 0.4 mL/min flow followed by a linear gradient to 95% B over 5.5 min and 0.4 mL/min flow leading to aTC, caffeine and sulfamethoxazole elution at 3.0, 1.9, 2.1 min, respectively. The qTOF was operated in positive scanning mode (50-1000 m/z) and the following source parameters: VCap: 3500 V, nozzle voltage: 2000 V, gas temp: 225° C.; drying gas 13 L/min; nebulizer: 20 psig; sheath gas temp 225° C.; sheath gas flow 12 L/min. Online mass calibration was performed using a second ionization source and a constant flow (5 μL/min) of reference solution (121.0509 and 922.0098 m/z). Compounds were identified based on the retention time of chemical standards and their accurate mass (tolerance 20 ppm). The MassHunter Quantitative Analysis Software (Agilent, version 7.0) was used for peak integration and quantification was based on calibration curves using chemical standards and the signal intensity of the internal standard spiked into each sample.
# [1] = 12 hours of aTC (100 μg/mL) via drinking water
structure (smiles),measurement,setting,value
"Cc1c2c(c(O)c3c(O)cccc13)C(=O)[C@]1(O)C(=O)C(C(N)=O)=C(O)[C@@H](N(C)C)[C@@H]1C2 [aTC, Anhydrotetracycline]",time to spike of inducer levels in fecal pellets,[1],≤ 12 h
same,time to undetectable after the spike,[1],24 h
same,half-life,"Swiss Webster, mouse, faeces, oral, fecal pellets, gnotobiotic mice with wildtype B. thetaiotaomicron, 100 μg/mL in drinking water for 4 days, read-out: half-life in vivo (converted)",19 h
same,degradation by B. thetaiotaomicron in vivo,comparison with germfree mice,does not degrade aTC in vivo
same,time to detection after addition to drinking water,"fecal pellets, 100 μg/mL",≤ 24 h
same,time to undetectable after removal from the water,"fecal pellets, 100 μg/mL for 4 days",6 days
